Results: ChEMBL document CHEMBL3091417, “Substituted phenyl as a steroid A-ring mimetic: providing agonist activity to a class of arylsulfonamide nonsteroidal glucocorticoid ligands” (Bioorg Med Chem Lett, 2013)
Calls of active or inactive are those of the source. The calls are words filed in the database; no cut-off is given here.

Assays:
Glucocorticoid receptor [1] = biological target: T1, Glucocorticoid receptor (Homo sapiens, UniProt P04150); experiment: Agonist activity at glucocorticoid receptor in human foreskin fibroblasts assessed as IL-1-mediated IL-6 synthesis after 24 hrs
T1 sequence (P04150 whole entry): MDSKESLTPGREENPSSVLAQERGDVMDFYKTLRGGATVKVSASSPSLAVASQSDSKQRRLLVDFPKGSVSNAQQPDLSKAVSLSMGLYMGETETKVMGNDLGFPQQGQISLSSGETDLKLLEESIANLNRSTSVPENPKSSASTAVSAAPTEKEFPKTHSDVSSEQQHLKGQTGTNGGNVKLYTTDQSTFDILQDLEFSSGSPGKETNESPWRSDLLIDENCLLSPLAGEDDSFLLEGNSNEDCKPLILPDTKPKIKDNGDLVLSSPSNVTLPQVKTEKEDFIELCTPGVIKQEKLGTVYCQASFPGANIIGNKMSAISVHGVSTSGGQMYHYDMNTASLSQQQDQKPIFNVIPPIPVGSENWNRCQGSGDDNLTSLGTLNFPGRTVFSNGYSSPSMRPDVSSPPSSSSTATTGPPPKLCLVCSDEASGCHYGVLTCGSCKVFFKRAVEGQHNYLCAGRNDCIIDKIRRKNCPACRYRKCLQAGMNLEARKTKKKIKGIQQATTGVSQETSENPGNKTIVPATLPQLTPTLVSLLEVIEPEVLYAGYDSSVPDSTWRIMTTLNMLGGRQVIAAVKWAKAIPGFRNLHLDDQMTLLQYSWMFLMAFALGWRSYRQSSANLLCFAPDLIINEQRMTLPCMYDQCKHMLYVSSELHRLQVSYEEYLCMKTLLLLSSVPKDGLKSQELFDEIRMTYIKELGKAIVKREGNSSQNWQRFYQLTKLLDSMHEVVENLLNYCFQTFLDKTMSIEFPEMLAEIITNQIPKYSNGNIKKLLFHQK

Glucocorticoid receptor [2] = biological target: T1, Glucocorticoid receptor; experiment: Inhibition of glucocorticoid receptor (unknown origin) expressed in baculovirus-infected insect cells by fluorescence polarization assay
[3] = biological target: T2, Glucocorticoid receptor (Homo sapiens) (UniProt P04150); experiment: Agonist activity at glucocorticoid receptor in human foreskin fibroblasts assessed as IL-1-mediated IL-6 synthesis at […] after 24 hrs relative to dexamethasone
T2 sequence (whole entry): T1 sequence (P04150 whole entry)

Progesterone receptor = biological target: T3, Progesterone receptor (Homo sapiens, UniProt P06401); experiment: Inhibition of progesterone receptor (unknown origin) expressed in baculovirus-infected insect cells by fluorescence polarization assay
T3 sequence (P06401 whole entry): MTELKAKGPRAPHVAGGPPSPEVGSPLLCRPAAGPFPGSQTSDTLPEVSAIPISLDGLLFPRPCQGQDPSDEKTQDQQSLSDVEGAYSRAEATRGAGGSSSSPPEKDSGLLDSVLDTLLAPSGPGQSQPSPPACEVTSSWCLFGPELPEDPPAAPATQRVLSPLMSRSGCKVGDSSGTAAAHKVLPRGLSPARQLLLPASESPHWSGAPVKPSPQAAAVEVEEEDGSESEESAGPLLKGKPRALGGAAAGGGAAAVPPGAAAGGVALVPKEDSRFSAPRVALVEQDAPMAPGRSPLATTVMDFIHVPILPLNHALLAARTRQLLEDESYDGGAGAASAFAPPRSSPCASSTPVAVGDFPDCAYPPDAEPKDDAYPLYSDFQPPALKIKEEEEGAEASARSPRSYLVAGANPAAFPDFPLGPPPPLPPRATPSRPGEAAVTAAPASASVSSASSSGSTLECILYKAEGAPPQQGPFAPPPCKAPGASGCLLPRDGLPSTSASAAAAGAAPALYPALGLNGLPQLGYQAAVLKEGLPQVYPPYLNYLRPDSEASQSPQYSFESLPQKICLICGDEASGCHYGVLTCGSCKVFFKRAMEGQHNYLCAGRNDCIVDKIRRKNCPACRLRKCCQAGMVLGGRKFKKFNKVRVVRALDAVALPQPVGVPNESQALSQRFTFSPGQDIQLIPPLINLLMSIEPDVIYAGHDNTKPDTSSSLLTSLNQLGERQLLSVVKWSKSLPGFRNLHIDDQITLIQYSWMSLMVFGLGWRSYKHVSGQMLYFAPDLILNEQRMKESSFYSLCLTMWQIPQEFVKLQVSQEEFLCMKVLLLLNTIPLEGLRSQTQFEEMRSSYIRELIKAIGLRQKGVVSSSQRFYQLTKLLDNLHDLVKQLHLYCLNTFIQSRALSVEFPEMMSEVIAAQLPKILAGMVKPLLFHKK

[4] = biological target: T4, Mineralocorticoid receptor (Homo sapiens, UniProt P08235); experiment: Inhibition of mineralocorticoid receptor (unknown origin) expressed in baculovirus-infected insect cells by fluorescence polarization assay
T4 sequence (P08235 whole entry): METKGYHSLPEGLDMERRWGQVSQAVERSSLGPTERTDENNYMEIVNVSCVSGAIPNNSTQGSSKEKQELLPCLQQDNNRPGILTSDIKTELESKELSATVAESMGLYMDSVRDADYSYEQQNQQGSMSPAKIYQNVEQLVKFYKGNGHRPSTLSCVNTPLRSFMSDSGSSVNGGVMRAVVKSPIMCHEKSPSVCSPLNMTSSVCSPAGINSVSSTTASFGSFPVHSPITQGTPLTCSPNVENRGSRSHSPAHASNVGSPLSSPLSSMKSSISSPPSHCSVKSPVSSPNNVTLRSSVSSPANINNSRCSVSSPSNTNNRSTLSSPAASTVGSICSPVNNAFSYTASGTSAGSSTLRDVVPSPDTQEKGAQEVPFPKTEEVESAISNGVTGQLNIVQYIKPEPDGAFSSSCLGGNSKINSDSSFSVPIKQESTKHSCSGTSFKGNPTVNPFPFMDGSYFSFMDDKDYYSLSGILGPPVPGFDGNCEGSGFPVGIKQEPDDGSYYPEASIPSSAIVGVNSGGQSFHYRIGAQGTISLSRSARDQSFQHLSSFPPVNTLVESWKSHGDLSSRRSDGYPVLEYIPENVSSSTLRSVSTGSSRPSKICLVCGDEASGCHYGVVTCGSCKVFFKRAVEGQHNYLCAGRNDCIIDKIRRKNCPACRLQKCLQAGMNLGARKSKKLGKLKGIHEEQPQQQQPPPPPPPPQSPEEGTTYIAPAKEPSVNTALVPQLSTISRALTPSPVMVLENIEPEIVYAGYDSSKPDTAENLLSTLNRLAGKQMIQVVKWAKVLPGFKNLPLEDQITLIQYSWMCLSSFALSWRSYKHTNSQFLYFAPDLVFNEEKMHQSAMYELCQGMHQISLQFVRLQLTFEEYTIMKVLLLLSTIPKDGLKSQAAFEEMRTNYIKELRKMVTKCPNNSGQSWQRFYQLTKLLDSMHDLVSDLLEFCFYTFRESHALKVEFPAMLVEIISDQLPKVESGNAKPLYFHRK

[5] = biological target: T2, Glucocorticoid receptor (Homo sapiens); experiment: Inhibition of glucocorticoid receptor (unknown origin) expressed in baculovirus-infected insect cells up to 10 uM by fluorescence polarization assay

SMILES	IC50 (Glucocorticoid receptor [1]) [nM]	IC50 (Glucocorticoid receptor [2]) [nM]	Emax [3] [%]	IC50 (Progesterone receptor) [nM]	IC50 [4] [nM]	inhibition [5]
CCC(Cc1cccc2ccccc12)NS(=O)(=O)c1c(C)cc(C)cc1C (stereo unspecified)	> 10000	10	0	1500	190	–
CCC(Cc1cc(C)c(OC)c(C)c1)NS(=O)(=O)c1c(C)cc(C)cc1C (stereo unspecified)	> 2000	250	0	> 10000	1400	–
CCC(Cc1cc(F)cc(F)c1)NS(=O)(=O)c1c(C)cc(C)cc1C (stereo unspecified)	> 10000	48	0	3400	400	–
CCC(Cc1ccc(C)cc1)NS(=O)(=O)c1c(C)cc(C)cc1C (stereo unspecified)	> 10000	230	0	3400	1100	–
CCC(Cc1c(C)cccc1C)NS(=O)(=O)c1c(C)cc(C)cc1C (stereo unspecified)	> 10000	110	0	> 10000	> 10000	–
CC[C@@H](Cc1ccc(O)c(C)c1C)NS(=O)(=O)c1c(C)cc(C)cc1C	22	2	77	620	270	–
CCC(Cc1cc(C)c(O)c(C)c1)NS(=O)(=O)c1c(C)cc(C)cc1C (stereo unspecified)	89	12	58	3500	480	–
CCC(Cc1ccc(O)c2ccccc12)NS(=O)(=O)c1c(C)cc(C)cc1C (stereo unspecified)	23	3	80	210	110	–
CCC(Cc1ccc(OC)c(C)c1C)NS(=O)(=O)c1c(C)cc(C)cc1C (stereo unspecified)	> 2000	62	0	2100	330	–
CCC(Cc1ccccc1C)NS(=O)(=O)c1c(C)cc(C)cc1C (stereo unspecified)	> 10000	83	0	4200	700	–
CCC(Cc1cccc(C)c1C)NS(=O)(=O)c1c(C)cc(C)cc1C (stereo unspecified)	> 10000	10	19	2000	350	–
CCC(Cc1ccc(C)cc1C)NS(=O)(=O)c1c(C)cc(C)cc1C (stereo unspecified)	> 10000	160	0	8200	2400	–
CCC(Cc1cc(Cl)cc(Cl)c1)NS(=O)(=O)c1c(C)cc(C)cc1C (stereo unspecified)	> 10000	10	0	1200	150	–
CCC(Cc1cccc(C)c1)NS(=O)(=O)c1c(C)cc(C)cc1C (stereo unspecified)	> 10000	23	0	5500	400	–
Cc1cc(C)c(S(=O)(=O)NC(C)Cc2ccccc2)c(C)c1 (stereo unspecified)	–	–	–	–	–	inactive
CC[C@@H](Cc1ccc(O)cc1)NS(=O)(=O)c1c(C)cc(C)cc1C	> 2000	120	0	6400	5200	–
CC[C@@H](Cc1ccc(O)c(C)c1)NS(=O)(=O)c1c(C)cc(C)cc1C	> 2000	23	0	2500	2300	–
CC[C@@H](Cc1ccc(O)cc1C)NS(=O)(=O)c1c(C)cc(C)cc1C	> 2000	27	0	2800	1000	–
CCC(Cc1cc(C)cc(C)c1)NS(=O)(=O)c1c(C)cc(C)cc1C (stereo unspecified)	> 10000	11	36	7400	360	–
CCC(Cc1cc(C)ccc1C)NS(=O)(=O)c1c(C)cc(C)cc1C (stereo unspecified)	> 10000	25	0	> 10000	320	–
CCC(Cc1ccc(O)c(C)c1C)NS(=O)(=O)c1c(C)cc(C)cc1C (racemic)	15	5	81	860	240	–
CCC(Cc1ccc2ccccc2c1)NS(=O)(=O)c1c(C)cc(C)cc1C (stereo unspecified)	> 10000	78	0	720	400	–
